Results as given in ChEMBL document CHEMBL1629655, “Affinity of Tomopenem (CS-023) for penicillin-binding proteins in Staphylococcus aureus, Escherichia coli, and Pseudomonas aeruginosa” (Antimicrob Agents Chemother, 2009).
Values after ≈ are worked out from the molar mass of the structure shown.

Assays:
Staphylococcus aureus [1] = assay: Ratio of MIC for Staphylococcus aureus SIR2a selected at 2 times MIC of imipenem to MIC for Staphylococcus aureus ATCC 6538P; assay type: functional
[2] = Displacement of [14C]benzylpenicillin from PBP4 in Escherichia coli NIHJ
Escherichia coli [3] = assay: Antibacterial activity against Escherichia coli EMR2a selected at 2 times MIC of meropenem by microdilution method; assay type: functional
Escherichia coli [4] = assay: Antibacterial activity against Escherichia coli EIR2b selected at 2 times MIC of imipenem by microdilution method; assay type: functional
Pseudomonas aeruginosa [5] = assay: Antibacterial activity against Pseudomonas aeruginosa PRR4a selected at 4 times MIC of tomopenem by microdilution method; assay type: functional
[6] = Displacement of [14C]benzylpenicillin from PBP4 in Staphylococcus aureus ATCC 6538P
[7] = Displacement of [14C]benzylpenicillin from PBP1A in Pseudomonas aeruginosa ATCC 15692
Escherichia coli [8] = assay: Ratio of MIC for Escherichia coli ERR2b to MIC for Escherichia coli NIHJ; assay type: functional
[9] = Displacement of [14C]benzylpenicillin from PBP3 in Staphylococcus aureus ATCC 6538P
[10] = Displacement of [14C]benzylpenicillin from PBP2 in Escherichia coli NIHJ
[11] = Displacement of [14C]benzylpenicillin from PBP5 in Escherichia coli NIHJ
Staphylococcus aureus [12] = assay: Ratio of MIC for Staphylococcus aureus SMR2a to MIC for Staphylococcus aureus ATCC 6538P; assay type: functional
Staphylococcus aureus [13] = assay: Antibacterial activity against Staphylococcus aureus SIR2a selected at 2 times MIC of imipenem by microdilution method; assay type: functional
[14] = Displacement of [14C]benzylpenicillin from PBP3 in Escherichia coli NIHJ
Escherichia coli [15] = assay: Ratio of MIC for Escherichia coli ERR8a to MIC for Escherichia coli NIHJ; assay type: functional
Escherichia coli [16] = assay: Antibacterial activity against Escherichia coli NIHJ by microdilution method; assay type: functional, organism-based
[17] = Displacement of [14C]benzylpenicillin from PBP3 in Pseudomonas aeruginosa ATCC 15692
[18] = Displacement of [14C]benzylpenicillin from PBP1 in Staphylococcus aureus ATCC 6538P
[19] = Displacement of [14C]benzylpenicillin from PBP1B in Escherichia coli NIHJ
Escherichia coli [20] = assay: Antibacterial activity against Escherichia coli ERR2a selected at 2 times MIC of tomopenem by microdilution method; assay type: functional
Staphylococcus aureus [21] = assay: Antibacterial activity against Staphylococcus aureus SRR2a selected at 2 times MIC of tomopenem by microdilution method; assay type: functional
Staphylococcus aureus [22] = assay: Antibacterial activity against Staphylococcus aureus SMR4a […] MIC of meropenem by microdilution method; assay type: functional
[23] = Displacement of [14C]benzylpenicillin from PBP1B in Pseudomonas aeruginosa ATCC 15692
Escherichia coli [24] = assay: Ratio of MIC for Escherichia coli EIR8a to MIC for Escherichia coli NIHJ; assay type: functional
Staphylococcus aureus [25] = assay: Ratio of MIC for Staphylococcus aureus SMR4a to MIC for Staphylococcus aureus ATCC 6538P; assay type: functional
Pseudomonas aeruginosa [26] = assay: Ratio of MIC for Pseudomonas aeruginosa PMR2a to MIC for Pseudomonas aeruginosa ATCC 15692; assay type: functional
Pseudomonas aeruginosa [27] = assay: Antibacterial activity against Pseudomonas aeruginosa PMR2a selected at 2 times MIC of meropenem by microdilution method; assay type: functional
Pseudomonas aeruginosa [28] = assay: Ratio of MIC for Pseudomonas aeruginosa PIR2a to MIC for Pseudomonas aeruginosa ATCC 15692; assay type: functional
Pseudomonas aeruginosa [29] = assay: Antibacterial activity against Pseudomonas aeruginosa ATCC 15692 by microdilution method; assay type: functional, organism-based
Escherichia coli [30] = assay: Ratio of MIC for Escherichia coli ERR2a selected to MIC for Escherichia coli NIHJ; assay type: functional
Escherichia coli [31] = assay: Antibacterial activity against Escherichia coli EIR4b selected at 4 times MIC of imipenem by microdilution method; assay type: functional
[32] = Displacement of [14C]benzylpenicillin from PBP 6 in Pseudomonas aeruginosa ATCC 15692
Escherichia coli [33] = assay: Antibacterial activity against Escherichia coli EIR2a selected at 2 times MIC of imipenem by microdilution method; assay type: functional
Escherichia coli [34] = assay: Ratio of MIC for Escherichia coli EIR4a to MIC for Escherichia coli NIHJ; assay type: functional
Staphylococcus aureus [35] = assay: Ratio of MIC for Staphylococcus aureus SRR2a to MIC for Staphylococcus aureus ATCC 6538P; assay type: functional
Escherichia coli [36] = assay: Antibacterial activity against Escherichia coli EIR4a selected at 4 times MIC of imipenem by microdilution method; assay type: functional
Escherichia coli [37] = assay: Ratio of MIC for Escherichia coli EIR4b to MIC for Escherichia coli NIHJ; assay type: functional
[38] = Displacement of [14C]benzylpenicillin from PBP 5 in Pseudomonas aeruginosa ATCC 15692
Escherichia coli [39] = assay: Antibacterial activity against Escherichia coli EIR8a selected at 8 times MIC of imipenem by microdilution method; assay type: functional
Escherichia coli [40] = assay: Antibacterial activity against Escherichia coli ERR4a selected at 4 times MIC of tomopenem by microdilution method; assay type: functional
Escherichia coli [41] = assay: Ratio of MIC for Escherichia coli EIR2a to MIC for Escherichia coli NIHJ; assay type: functional
Pseudomonas aeruginosa [42] = assay: Ratio of MIC for Pseudomonas aeruginosa PRR4a to MIC for Pseudomonas aeruginosa ATCC 15692; assay type: functional
[43] = Displacement of [14C]benzylpenicillin from PBP2 Staphylococcus aureus ATCC 6538P
[44] = Displacement of [14C]benzylpenicillin from PBP2 in Pseudomonas aeruginosa ATCC 15692
[45] = Displacement of [14C]benzylpenicillin from PBP6 Escherichia coli NIHJ
Escherichia coli [46] = assay: Antibacterial activity against Escherichia coli ERR2b selected at 2 times MIC of tomopenem by microdilution method; assay type: functional
Staphylococcus aureus [47] = assay: Antibacterial activity against Staphylococcus aureus SMR2a selected at 2 times MIC of meropenem by microdilution method; assay type: functional
[48] = Displacement of [14C]benzylpenicillin from PBP1A in Escherichia coli NIHJ
Pseudomonas aeruginosa [49] = assay: Antibacterial activity against Pseudomonas aeruginosa PIR2a selected at 2 times MIC of imipenem by microdilution method; assay type: functional
Escherichia coli [50] = assay: Ratio of MIC for Escherichia coli ERR4a to MIC for Escherichia coli NIHJ; assay type: functional
Staphylococcus aureus [51] = assay: Antibacterial activity against Staphylococcus aureus ATCC 6538P by microdilution method; assay type: functional, organism-based
Escherichia coli [52] = assay: Antibacterial activity against Escherichia coli ERR8a selected at 8 times MIC of tomopenem by microdilution method; assay type: functional
Escherichia coli [53] = assay: Ratio of MIC for Escherichia coli EMR2a to MIC for Escherichia coli NIHJ; assay type: functional
[54] = Displacement of [14C]benzylpenicillin from PBP4 in Pseudomonas aeruginosa ATCC 15692
Escherichia coli [55] = assay: Ratio of MIC for Escherichia coli EIR2b to MIC for Escherichia coli NIHJ; assay type: functional

C[C@@H](O)[C@H]1C(=O)N2C(C(=O)O)=C(S[C@@H]3CN[C@H](C(=O)N(C)C)C3)[C@H](C)[C@H]12 [MEROPENEM]
Ratio MIC (Staphylococcus aureus [1]): 4 | IC50 [2]: 0.047 µg/mL (≈ 0.123 µM) | MIC (Escherichia coli [3]): 0.06 µg/mL | MIC (Escherichia coli [4]): 0.03 µg/mL | MIC (Pseudomonas aeruginosa [5]): 2 µg/mL | IC50 [6]: 0.071 µg/mL (≈ 0.185 µM) | IC50 [7]: 0.12 µg/mL (≈ 0.313 µM) | Ratio MIC (Escherichia coli [8]): 2 | IC50 [9]: > 130 µg/mL | IC50 [10]: 0.016 µg/mL (≈ 0.0417 µM) | IC50 [11]: 1.2 µg/mL (≈ 3.13 µM) | Ratio MIC (Staphylococcus aureus [12]): 8 | MIC (Staphylococcus aureus [13]): 0.12 µg/mL | IC50 [14]: 0.39 µg/mL (≈ 1.02 µM) | Ratio MIC (Escherichia coli [15]): 2 | MBC (Escherichia coli [16]): 0.03 µg/mL (≈ 0.0782 µM) | MIC (Escherichia coli [16]): 0.03 µg/mL (≈ 0.0782 µM) | IC50 [17]: 0.013 µg/mL (≈ 0.0339 µM) | IC50 [18]: 0.044 µg/mL (≈ 0.115 µM) | IC50 [19]: 0.77 µg/mL (≈ 2.01 µM) | MIC (Escherichia coli [20]): 0.03 µg/mL | MIC (Staphylococcus aureus [21]): 0.25 µg/mL | MIC (Staphylococcus aureus [22]): 0.25 µg/mL | IC50 [23]: 0.11 µg/mL (≈ 0.287 µM) | Ratio MIC (Escherichia coli [24]): 1 | ratio (Staphylococcus aureus [25]): 8 | Ratio MIC (Pseudomonas aeruginosa [26]): 16 | MIC (Pseudomonas aeruginosa [27]): 8 µg/mL | Ratio MIC (Pseudomonas aeruginosa [28]): 8 | MBC (Pseudomonas aeruginosa [29]): 1 µg/mL (≈ 2.61 µM) | MIC (Pseudomonas aeruginosa [29]): 1 µg/mL (≈ 2.61 µM) | Ratio MIC (Escherichia coli [30]): 1 | MIC (Escherichia coli [31]): 0.12 µg/mL | IC50 [32]: 4.5 µg/mL (≈ 11.7 µM) | MIC (Escherichia coli [33]): 0.03 µg/mL | Ratio MIC (Escherichia coli [34]): 1 | Ratio MIC (Staphylococcus aureus [35]): 8 | MIC (Escherichia coli [36]): 0.03 µg/mL | Ratio MIC (Escherichia coli [37]): 4 | IC50 [38]: 4.5 µg/mL (≈ 11.7 µM) | MIC (Escherichia coli [39]): 0.03 µg/mL | MIC (Escherichia coli [40]): 0.06 µg/mL | Ratio MIC (Escherichia coli [41]): 1 | Ratio MIC (Pseudomonas aeruginosa [42]): 4 | IC50 [43]: 0.26 µg/mL (≈ 0.678 µM) | IC50 [44]: 0.018 µg/mL (≈ 0.0469 µM) | IC50 [45]: 15 µg/mL (≈ 39.1 µM) | MIC (Escherichia coli [46]): 0.06 µg/mL | MIC (Staphylococcus aureus [47]): 0.25 µg/mL | IC50 [48]: 0.82 µg/mL (≈ 2.14 µM) | MIC (Pseudomonas aeruginosa [49]): 4 µg/mL | Ratio MIC (Escherichia coli [50]): 2 | IC50 (Staphylococcus aureus [51]): 0.06 µg/mL (≈ 0.156 µM) | MBC (Staphylococcus aureus [51]): 0.12 µg/mL (≈ 0.313 µM) | MIC (Staphylococcus aureus [51]): 0.06 µg/mL (≈ 0.156 µM) | MIC (Escherichia coli [52]): 0.06 µg/mL | Ratio MIC (Escherichia coli [53]): 2 | IC50 [54]: 0.0033 µg/mL (≈ 0.00861 µM) | Ratio MIC (Escherichia coli [55]): 1
